Data from patent US20170107203A1, “HETEROCYCLIC INHIBITORS OF THE SODIUM CHANNEL” (EPIRUS BIOPHARMACEUTICALS, INC., priority 2014, published 2017).

Target: T1, human Nav1.7 (Homo sapiens, UniProt Q15858)
T1 construct: expressed in transfected cells
Assay: Assessment of Nav1.7 activity on PatchXpress (voltage dependence / slow inactivation parameters)
Type: cell-based
Conditions: compound at 10 μM, relative to 0.2% DMSO vehicle control; for hNav1.7: Reduction in current at 20 mV (normalized data) Delta Ratio: before/after 30 sec conditioning pulse at 20 mV; for hNav1.7: Shift in voltage dependence of inactivation (mV) Delta Vhalf: PatchXpress
Description: The generation of a HEK 293F cell line stably expressing human Nav1.7/Navp1 was achieved by co-transfecting human SCN9A and human SCN1B cDNAs, subcloned into plasmid vectors, utilizing standard transfection techniques. Clones were selected using appropriate selection agents (0.3 mg/mL Zeocin and 0.8 mg/mL Geneticin) and maintained in Dulbecco's Modified Eagle medium, 10% fetal bovine serum, 1% non-essential amino acids to ˜80% confluence at 37° C. in a humidified incubator with 95% atmosphere and 5% CO2.
On the day of each experiment, cells that were grown to 80% confluence in a T75 flask were harvested for use on PatchXpress (Molecular Devices, CA, USA). Following a recovery period at 37° C. in a humidified incubator with 95% atmosphere and 5% CO2 in Dulbecco's Modified Eagle Medium, the media was replaced with an external recording solution containing (in mM): 90 TEACI, 50 NaCl, 1.8 CaCl2, 1 MgCl2, 10 HEPES, 10 glucose, adjusted to pH 7.4 with TEAOH and 300 mOsm with sucrose. The internal recording solution contained (in mM): 129 CsF, 2 MgCl2, 11 EGTA, 10 HEPES, 6 NaCl, 3 Na2ATP adjusted to pH 7.2 with CsOH and 280 mOsm with sucrose. The automated liquid handling facility of PatchXpress dispensed cells and added compound. Modulation of Nav1.7 channels by compounds was assessed by promoting the channels into the inactivated state using a conditioning voltage pulse of variable amplitude, followed by a brief hyperpolarizing pulse with a subsequent depolarized voltage step to measure the current amplitude in the presence and absence of compound. Compounds were assayed at 10 μM. Based upon this Patch express protocol, four electrophysiological parameters were measured relative to a 0.2% DMSO vehicle control (Table 2).

T1 sequence (Q15858 whole entry): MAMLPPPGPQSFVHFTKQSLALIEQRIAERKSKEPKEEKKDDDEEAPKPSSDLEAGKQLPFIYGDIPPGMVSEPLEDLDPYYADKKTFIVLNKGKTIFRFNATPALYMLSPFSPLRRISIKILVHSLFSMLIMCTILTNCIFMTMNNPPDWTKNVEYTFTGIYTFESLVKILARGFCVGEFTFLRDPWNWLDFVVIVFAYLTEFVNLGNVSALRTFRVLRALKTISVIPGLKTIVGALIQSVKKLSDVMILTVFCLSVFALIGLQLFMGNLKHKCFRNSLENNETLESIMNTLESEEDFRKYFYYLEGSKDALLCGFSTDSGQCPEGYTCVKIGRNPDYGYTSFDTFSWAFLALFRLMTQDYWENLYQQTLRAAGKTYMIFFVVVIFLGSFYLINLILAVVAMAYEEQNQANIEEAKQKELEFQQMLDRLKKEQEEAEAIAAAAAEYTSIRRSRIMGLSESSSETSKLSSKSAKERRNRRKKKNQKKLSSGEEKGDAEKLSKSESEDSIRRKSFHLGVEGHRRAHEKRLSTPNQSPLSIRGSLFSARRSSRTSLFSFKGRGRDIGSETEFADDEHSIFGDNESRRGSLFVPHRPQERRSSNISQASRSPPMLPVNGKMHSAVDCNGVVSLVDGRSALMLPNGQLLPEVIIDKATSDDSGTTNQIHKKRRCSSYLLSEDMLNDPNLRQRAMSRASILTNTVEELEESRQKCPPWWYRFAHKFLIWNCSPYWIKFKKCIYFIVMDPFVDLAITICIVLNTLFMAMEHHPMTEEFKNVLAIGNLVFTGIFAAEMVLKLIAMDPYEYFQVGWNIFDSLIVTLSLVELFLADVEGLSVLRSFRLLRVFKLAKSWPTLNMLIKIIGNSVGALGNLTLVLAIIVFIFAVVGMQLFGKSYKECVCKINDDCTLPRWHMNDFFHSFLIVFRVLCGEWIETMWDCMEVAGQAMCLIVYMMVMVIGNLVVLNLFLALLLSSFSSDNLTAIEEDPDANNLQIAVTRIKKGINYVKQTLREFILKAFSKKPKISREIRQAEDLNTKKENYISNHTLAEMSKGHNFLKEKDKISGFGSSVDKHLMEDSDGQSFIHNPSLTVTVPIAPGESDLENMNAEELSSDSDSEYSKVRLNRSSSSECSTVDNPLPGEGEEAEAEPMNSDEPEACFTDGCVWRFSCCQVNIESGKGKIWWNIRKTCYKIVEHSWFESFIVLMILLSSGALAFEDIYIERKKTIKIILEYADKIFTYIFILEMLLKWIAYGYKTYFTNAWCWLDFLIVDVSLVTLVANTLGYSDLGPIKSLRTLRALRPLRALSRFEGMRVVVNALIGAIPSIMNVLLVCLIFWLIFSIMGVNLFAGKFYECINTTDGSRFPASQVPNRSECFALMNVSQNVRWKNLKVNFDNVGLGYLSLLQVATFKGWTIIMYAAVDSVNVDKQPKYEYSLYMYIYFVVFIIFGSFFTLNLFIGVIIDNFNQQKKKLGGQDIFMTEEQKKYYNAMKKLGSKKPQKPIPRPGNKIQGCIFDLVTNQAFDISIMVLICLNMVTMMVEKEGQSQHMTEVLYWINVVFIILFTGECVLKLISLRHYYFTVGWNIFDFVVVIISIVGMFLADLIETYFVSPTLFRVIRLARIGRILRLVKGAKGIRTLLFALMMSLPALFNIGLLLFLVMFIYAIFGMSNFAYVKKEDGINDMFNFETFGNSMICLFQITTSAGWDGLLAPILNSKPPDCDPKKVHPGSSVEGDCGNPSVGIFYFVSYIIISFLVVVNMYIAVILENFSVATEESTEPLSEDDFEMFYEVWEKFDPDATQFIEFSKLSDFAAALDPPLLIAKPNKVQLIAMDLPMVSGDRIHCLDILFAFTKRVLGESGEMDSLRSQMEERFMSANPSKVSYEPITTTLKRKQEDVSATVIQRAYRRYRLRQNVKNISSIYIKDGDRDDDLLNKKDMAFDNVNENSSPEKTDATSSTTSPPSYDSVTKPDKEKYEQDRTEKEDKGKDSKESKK
T1 sequence (Q07699 19-218 partner): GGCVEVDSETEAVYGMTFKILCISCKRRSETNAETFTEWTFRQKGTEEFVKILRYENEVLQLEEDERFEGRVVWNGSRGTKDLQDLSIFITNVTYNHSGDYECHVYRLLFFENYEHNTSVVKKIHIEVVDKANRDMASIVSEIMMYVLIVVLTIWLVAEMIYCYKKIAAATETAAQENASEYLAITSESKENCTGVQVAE

O=C(NCC12CC3CC(CC(C3)C1)C2)[C@H]1CCCN1 [Compound 44, (R)-N-(adamantan-1-ylmethyl)pyrrolidine-2-carboxamide]
hNav1.7: Reduction in current at 20 mV (normalized data) Delta Ratio: −0.11
hNav1.7: Voltage dependence of activation (mV) VDEP: −13.20 mV
hNav1.7: Voltage dependence of fast inactivation (mV) VDEP: −6.00 mV
hNav1.7: Shift in voltage dependence of inactivation (mV) Delta Vhalf: −5.40 mV

O=C(NCCOc1cc(F)cc(C(F)(F)F)c1)[C@@H]1CCCN1 [Compound 22, (S)-N-(2-(3-fluoro-5-(trifluoromethyl)phenoxy)ethyl) pyrrolidine-2-carboxamide]
hNav1.7: Reduction in current at 20 mV (normalized data) Delta Ratio: 0.06
hNav1.7: Voltage dependence of activation (mV) VDEP: −6.50 mV
hNav1.7: Voltage dependence of fast inactivation (mV) VDEP: −1.80 mV
hNav1.7: Shift in voltage dependence of inactivation (mV) Delta Vhalf: −7.00 mV

N[C@H](Cc1ccc(F)cc1)Cc1nc2cc(C(F)(F)F)cc(C(F)(F)F)c2[nH]1 [Compound 56, (R)-1-(4,6-bis(trifluoromethyl)-1H-benzo[d]imidazol-2-yl)-3-(4-fluorophenyl)propan-2-amine]
hNav1.7: Reduction in current at 20 mV (normalized data) Delta Ratio: −0.21
hNav1.7: Voltage dependence of activation (mV) VDEP: −14.4 mV
hNav1.7: Voltage dependence of fast inactivation (mV) VDEP: −3.3 mV
hNav1.7: Shift in voltage dependence of inactivation (mV) Delta Vhalf: −16.8 mV

O=C1CNCCN1CCCc1nc2cc(C(F)(F)F)cc(C(F)(F)F)c2[nH]1 [Compound 69]
hNav1.7: Reduction in current at 20 mV (normalized data) Delta Ratio: −0.09
hNav1.7: Voltage dependence of activation (mV) VDEP: −9.2 mV
hNav1.7: Voltage dependence of fast inactivation (mV) VDEP: −4.9 mV
hNav1.7: Shift in voltage dependence of inactivation (mV) Delta Vhalf: −7.5 mV

NC[C@@H]1Nc2c(cc(C(F)(F)F)cc2C(F)(F)F)NC1=O [Compound 40, (S)-3-(aminomethyl)-5,7-bis(trifluoromethyl)-3,4-dihydroquinoxalin-2(1H)-one]
hNav1.7: Reduction in current at 20 mV (normalized data) Delta Ratio: −0.02
hNav1.7: Voltage dependence of activation (mV) VDEP: −6.60 mV
hNav1.7: Voltage dependence of fast inactivation (mV) VDEP: −2.60 mV
hNav1.7: Shift in voltage dependence of inactivation (mV) Delta Vhalf: −3.90 mV

NC1(C(=O)NCCOc2cc(C(F)(F)F)cc(C(F)(F)F)c2)CC1 [Compound 21, 1-amino-N-(2-(3,5-bis(trifluoromethyl)phenoxy)ethyl) cyclopropane-1-carboxamide]
hNav1.7: Reduction in current at 20 mV (normalized data) Delta Ratio: 0.00
hNav1.7: Voltage dependence of activation (mV) VDEP: −5.20 mV
hNav1.7: Voltage dependence of fast inactivation (mV) VDEP: −10.40 mV
hNav1.7: Shift in voltage dependence of inactivation (mV) Delta Vhalf: −4.20 mV

Cc1cccc(C)c1OCC(C)NC(=O)[C@@H](N)CC(C)C (stereo partly drawn) [Compound 3, (2S)-2-amino-N-(1-(2,6-dimethylphenoxy)propan-2-yl)-4-methylpentanamide]
hNav1.7: Reduction in current at 20 mV (normalized data) Delta Ratio: −0.28
hNav1.7: Voltage dependence of activation (mV) VDEP: −8.10 mV
hNav1.7: Voltage dependence of fast inactivation (mV) VDEP: −7.40 mV
hNav1.7: Shift in voltage dependence of inactivation (mV) Delta Vhalf: −28.00 mV

CC12CC3CC(C)(C1)CC(NC(=O)CCN)(C3)C2 [Compound 46, 3-amino-N-(3,5-dimethyladamantan-1-yl)propanamide]
hNav1.7: Reduction in current at 20 mV (normalized data) Delta Ratio: −0.04
hNav1.7: Voltage dependence of activation (mV) VDEP: −7.90 mV
hNav1.7: Voltage dependence of fast inactivation (mV) VDEP: −4.50 mV
hNav1.7: Shift in voltage dependence of inactivation (mV) Delta Vhalf: −1.70 mV

CN[C@H](CC(C)C)C(=O)NCCOc1cc(C(F)(F)F)cc(C(F)(F)F)c1 [Compound 13, (R)-N-(2-(3,5-bis(trifluoromethyl)phenoxy)ethyl)-4-methyl-2-(methylamino)pentanamide]
hNav1.7: Reduction in current at 20 mV (normalized data) Delta Ratio: −0.17
hNav1.7: Voltage dependence of activation (mV) VDEP: −5.90 mV
hNav1.7: Voltage dependence of fast inactivation (mV) VDEP: −4.00 mV
hNav1.7: Shift in voltage dependence of inactivation (mV) Delta Vhalf: −23.80 mV

O=C1CNCCN1Cc1cc(C(F)(F)F)cc(C(F)(F)F)c1 [Compound 91, 1-(3,5-bis(trifluoromethyl)benzyl)piperazin-2-one]
hNav1.7: Reduction in current at 20 mV (normalized data) Delta Ratio: 0.01
hNav1.7: Voltage dependence of activation (mV) VDEP: −5 mV
hNav1.7: Voltage dependence of fast inactivation (mV) VDEP: −4.1 mV
hNav1.7: Shift in voltage dependence of inactivation (mV) Delta Vhalf: −3.1 mV

COC[C@@H](N)C(=O)NCC(=O)NCc1cc(C(F)(F)F)cc(C(F)(F)F)c1 [Compound 80, (R)-2-amino-N-(2-((3,5-bis(trifluoromethyl)benzyl)amino)-2-oxoethyl)-3-methoxypropanamide]
hNav1.7: Reduction in current at 20 mV (normalized data) Delta Ratio: −0.03
hNav1.7: Voltage dependence of activation (mV) VDEP: −9.3 mV
hNav1.7: Voltage dependence of fast inactivation (mV) VDEP: −3.8 mV
hNav1.7: Shift in voltage dependence of inactivation (mV) Delta Vhalf: −7.2 mV

CC[C@@H](C)[C@@H](N)C(=O)NCCOc1cc(F)cc(C(F)(F)F)c1 [Compound 19, (2R,3R)-2-amino-N-(2-(3-fluoro-5-(trifluoromethyl)phenoxy)ethyl)-3-methylpentanamide]
hNav1.7: Reduction in current at 20 mV (normalized data) Delta Ratio: −0.08
hNav1.7: Voltage dependence of activation (mV) VDEP: −8.00 mV
hNav1.7: Voltage dependence of fast inactivation (mV) VDEP: −3.50 mV
hNav1.7: Shift in voltage dependence of inactivation (mV) Delta Vhalf: −10.00 mV

Cc1cccc(C)c1OCC(C)NC(=O)C(C)(C)CC(=O)N1CCNCC1 (centres unmarked) [Compound 33, N-(1-(2,6-dimethylphenoxy)propan-2-yl)-2,2-dimethyl-4-oxo-4-(piperazin-1-yl)butanamide]
hNav1.7: Reduction in current at 20 mV (normalized data) Delta Ratio: −0.07
hNav1.7: Voltage dependence of activation (mV) VDEP: −8.70 mV
hNav1.7: Voltage dependence of fast inactivation (mV) VDEP: −6.00 mV
hNav1.7: Shift in voltage dependence of inactivation (mV) Delta Vhalf: −5.30 mV

FC(F)(F)c1cc(C(F)(F)F)c2[nH]c(C3NCc4ccccc43)nc2c1 (centres unmarked) [Compound 59, 2-(isoindolin-1-y)-4,6-bis(trifluoromethyl)-1H-benzo[d]imidazole]
hNav1.7: Reduction in current at 20 mV (normalized data) Delta Ratio: −0.2
hNav1.7: Voltage dependence of activation (mV) VDEP: −9 mV
hNav1.7: Voltage dependence of fast inactivation (mV) VDEP: −5.9 mV
hNav1.7: Shift in voltage dependence of inactivation (mV) Delta Vhalf: −12.8 mV

N[C@@H](Cc1ccccc1)Cc1nc2cc(C(F)(F)F)cc(C(F)(F)F)c2[nH]1 [Compound 53, (S)-1-(4,6-bis(trifluoromethyl)-1H-benzo[d]imidazol-2-yl)-3-phenylpropan-2-amine]
hNav1.7: Reduction in current at 20 mV (normalized data) Delta Ratio: −0.28
hNav1.7: Voltage dependence of activation (mV) VDEP: −8.2 mV
hNav1.7: Voltage dependence of fast inactivation (mV) VDEP: −3.9 mV
hNav1.7: Shift in voltage dependence of inactivation (mV) Delta Vhalf: −7.2 mV

CC(C)(CC(=O)N1CCNCC1)c1nc2cc(C(F)(F)F)cc(C(F)(F)F)c2[nH]1 [Compound 62, 3-(4,6-bis(trifluoromethyl)-1H-benzo[d]imidazol-2-yl)-3-methyl-1-(piperazin-1-yl)butan-1-one]
hNav1.7: Reduction in current at 20 mV (normalized data) Delta Ratio: −0.19
hNav1.7: Voltage dependence of activation (mV) VDEP: −7.4 mV
hNav1.7: Voltage dependence of fast inactivation (mV) VDEP: −3.8 mV
hNav1.7: Shift in voltage dependence of inactivation (mV) Delta Vhalf: −12.5 mV

C[C@@H](NC(=O)CN1CCNCC1=O)c1ccc(OCC(F)(F)F)cn1 [Compound 81, (R)-2-(2-oxopiperazin-1-yl)-N-(1-(5-(2,2,2-trifluoroethoxy)pyridin-2-yl)ethyl)acetamide]
hNav1.7: Reduction in current at 20 mV (normalized data) Delta Ratio: −0.02
hNav1.7: Voltage dependence of activation (mV) VDEP: −10.3 mV
hNav1.7: Voltage dependence of fast inactivation (mV) VDEP: −5 mV
hNav1.7: Shift in voltage dependence of inactivation (mV) Delta Vhalf: −2.8 mV
